These results are taken from ChEMBL document CHEMBL1127778, “Structure-activity relationship of novel distamycin a derivatives : synthesis and antitumor activity” (Bioorg Med Chem Lett, 1994).

The structures appear in SMILES notation. Values after ≈ are worked out from the molar mass of the structure shown.

The test system of test [1] is L1210. Nature of the test: The activity in vitro on L1210 murine leukemia cells, activity expressed as IC50. Format: functional, cell-based, Mus musculus.
The test system of test [2] is Mus musculus. Description: Median survival time of treated mice / Median survival time of controls x100 was measured in vivo on L1210 murine leukemia cells. Format: functional.
Test [3] concerns L1210. Nature of the test: In vitro inhibitory activity against FCE 24517 resistant L1210 leukemia cell lines ( ratio between IC50 values on resistant cells and sensitive cells). Format: functional, Mus musculus.
The subject of test [4] is L1210. Nature of the test: In vitro inhibitory activity against Doxorubicin resistant L1210 leukemia cell lines ( ratio between IC50 values on resistant cells and sensitive cells). Format: functional, Mus musculus.
Test [5] relates to L1210. Description: Optimal dose was measured in vivo on L1210 murine leukemia cells in CD2F1 mice(ip). Format: functional, Mus musculus.
Where [6] appears, read: Mus musculus, L1210, read-out: IC50.

Take `Cn1cc(NC(=O)c2cc(NC(=O)c3cc(NC=O)cn3C)cn2C)cc1C(=O)NCCC(=N)N` [STALLIMYCIN]: the IC50 (usually the point on the concentration scale where inhibition reaches its midpoint) in test [1] (setting [6]) was 5.22 µg/mL (≈ 10.8 µM). Besides, in test [2], the T/C (in general, the ratio of treated to control) is recorded as 113%. In addition, the R.I in test [3] was determined as 14.1; in test [4], 45.6. Besides, the OD in test [5] was determined as 200 mg/kg.

In the case of `C=C(Cl)C(=O)Nc1cc(C(=O)Nc2cc(C(=O)Nc3cc(C(=O)NCCC(=N)N)n(C)c3)n(C)c2)n(C)c1.Cl`, the IC50 in test [1] (setting [6]) was determined as 0.056 µg/mL. This compound also displayed a T/C in test [2] of 184%. The values for the R.I in test [3] and in test [4] were 24.8 and 40.3, respectively. This compound also gave an OD in test [5] of 10 mg/kg.

For the compound `Cl.Cn1cc(NC(=O)c2cc(NC(=O)c3cc(NC(=O)c4cc(NC=O)cn4C)cn3C)cn2C)cc1C(=O)NCCC(=N)N`, the IC50 in test [1] (setting [6]) turned out to be 0.285 µg/mL. The R.I in test [3] was found to be 169.9; in test [4] it was 175.4.

Consider `Cl.Cn1cc(NC(=O)c2cc(NC(=O)c3cc(NC(=O)c4ccc(N(CCCl)CCCl)cc4)cn3C)cn2C)cc1C(=O)NCCC(=N)N` [TALLIMUSTINE CHLORIDE], for which the IC50 in test [1] (setting [6]) was 0.0244 µg/mL. For the same compound, in test [2], the T/C came out at 175%. In addition, the R.I is recorded as 21.7 in test [3] and 28 in test [4]. Also, the OD in test [5] turned out to be 3.125 mg/kg.

With `C=C(Br)C(=O)O`, the IC50 in test [1] (setting [6]) worked out at 18.8 µg/mL (≈ 125 µM). Further, the figures for the R.I in test [3] and in test [4] were 0.5 and 1.1, respectively.

Turning to `Cl.Cn1cc(NC(=O)c2cc(NC(=O)c3cc(NC(=O)c4cc(NC(=O)C5CO5)cn4C)cn3C)cn2C)cc1C(=O)NCCC(=N)N` (stereo not drawn), in test [1] (setting [6]), the IC50 was 0.0389 µg/mL. The T/C in test [2] is 188%. The R.I in test [3] was determined as 24.1; in test [4], 1.7. For the same compound, the OD in test [5] was 3.125 mg/kg.

Take `C=C(Br)C(=O)Nc1cc(C(=O)Nc2cc(C(=O)Nc3cc(C(=O)NCCC(=N)N)n(C)c3)n(C)c2)n(C)c1.Cl`: the IC50 in test [1] (setting [6]) was 0.0496 µg/mL. This compound also displayed a T/C in test [2] of 175%. The R.I in test [3] is on record as 11.4; in test [4], 8.8. This compound also gave an OD in test [5] of 12.5 mg/kg.

Take `O=C(O)C1CO1` (stereo not drawn): in test [1] (l1210), the IC50 was 131.397 µg/mL (≈ 1490 µM). Besides, the R.I in test [3] came out at 0.5; in test [4], 1.

`Cl.Cn1cc(NC(=O)c2cc(NC(=O)c3cc(NC(=O)C4CO4)cn3C)cn2C)cc1C(=O)NCCC(=N)N` (stereo not drawn): in test [1] (setting [6]), the 50% inhibitory concentration (IC50) stood at 0.229 µg/mL. The compound also had a T/C in test [2] of 188%. Further, the R.I was determined as 44.4 in test [3] and 7.1 in test [4]. Moreover, in test [5], the OD stood at 50 mg/kg.

`C=C(Cl)C(=O)Nc1cc(C(=O)Nc2cc(C(=O)Nc3cc(C(=O)Nc4cc(C(=O)NCCC(=N)N)n(C)c4)n(C)c3)n(C)c2)n(C)c1.Cl`: the IC50 in test [1] (setting [6]) was 0.0027 µg/mL. The same compound gave a T/C in test [2] of 171%. For the same compound, the R.I in test [3] amounted to 69.6; in test [4], 59.9. Also, the OD in test [5] came to 3.125 mg/kg.

As to `C=C(Br)C(=O)Nc1cc(C(=O)Nc2cc(C(=O)Nc3cc(C(=O)Nc4cc(C(=O)NCCC(=N)N)n(C)c4)n(C)c3)n(C)c2)n(C)c1.Cl`, the IC50 in test [1] (setting [6]) was 0.0047 µg/mL. The compound further came in with a T/C in test [2] of 206%. In addition, the R.I in test [3] was determined as 27; in test [4] it was 3.8. In test [5], this compound came in with an OD of 3.125 mg/kg.

Regarding `Cl.Cn1cc(NC(=O)c2cc(NC(=O)c3cc(NC(=O)c4cc(NC(=O)c5ccc(N(CCCl)CCCl)cc5)cn4C)cn3C)cn2C)cc1C(=O)NCCC(=N)N`, the IC50 in test [1] (setting [6]) is 0.0163 µg/mL. The compound further registered a T/C in test [2] of 138%. In addition, the R.I in test [3] is reported as 65.4. The compound further yielded an OD in test [5] of 0.39 mg/kg.
